# Results: article PMC4363092 (Journal of medicinal chemistry, 2014)
# “Also recorded” adds a separate entry of the source.
# Legend:
# human NTPDase3 = target: T1, human NTPDase3 (Homo sapiens, UniProt O75355); conditions: analogue 100 μM as substrate; activity with 100 μM ATP set as 100%
# T1 sequence (O75355 1-529): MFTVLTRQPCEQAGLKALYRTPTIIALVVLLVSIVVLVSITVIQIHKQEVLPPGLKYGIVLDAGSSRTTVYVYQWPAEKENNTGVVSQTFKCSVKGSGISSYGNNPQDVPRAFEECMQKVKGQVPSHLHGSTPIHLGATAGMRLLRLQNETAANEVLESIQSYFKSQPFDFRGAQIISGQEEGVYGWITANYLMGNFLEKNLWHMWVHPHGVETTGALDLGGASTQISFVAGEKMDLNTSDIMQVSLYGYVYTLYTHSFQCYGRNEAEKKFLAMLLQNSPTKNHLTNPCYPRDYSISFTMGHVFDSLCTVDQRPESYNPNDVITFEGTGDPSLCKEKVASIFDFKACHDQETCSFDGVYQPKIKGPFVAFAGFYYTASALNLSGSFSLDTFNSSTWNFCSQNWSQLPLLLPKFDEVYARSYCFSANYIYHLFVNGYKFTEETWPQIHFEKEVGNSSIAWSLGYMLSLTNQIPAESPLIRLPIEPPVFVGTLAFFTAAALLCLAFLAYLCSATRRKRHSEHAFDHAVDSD
# P2Y2 receptor = P2Y2 receptor (Homo sapiens, UniProt P41231); test: [Ca2+]i response in 1321N1 astrocytoma cells expressing GFP-P2Y2 receptor; type: cell-based; conditions: for agonist activity at P2Y2R: 100 μM; for inhibition of the typical response to UTP at P2Y2R: 1321N1 cells (data not shown)
# TNAP = target: T2, TNAP (Homo sapiens, UniProt P05186); test: Inhibition of TNAP activity; type: biochemical; conditions: analogue 100 μM
# T2 sequence (P05186 18-502 limits assumed): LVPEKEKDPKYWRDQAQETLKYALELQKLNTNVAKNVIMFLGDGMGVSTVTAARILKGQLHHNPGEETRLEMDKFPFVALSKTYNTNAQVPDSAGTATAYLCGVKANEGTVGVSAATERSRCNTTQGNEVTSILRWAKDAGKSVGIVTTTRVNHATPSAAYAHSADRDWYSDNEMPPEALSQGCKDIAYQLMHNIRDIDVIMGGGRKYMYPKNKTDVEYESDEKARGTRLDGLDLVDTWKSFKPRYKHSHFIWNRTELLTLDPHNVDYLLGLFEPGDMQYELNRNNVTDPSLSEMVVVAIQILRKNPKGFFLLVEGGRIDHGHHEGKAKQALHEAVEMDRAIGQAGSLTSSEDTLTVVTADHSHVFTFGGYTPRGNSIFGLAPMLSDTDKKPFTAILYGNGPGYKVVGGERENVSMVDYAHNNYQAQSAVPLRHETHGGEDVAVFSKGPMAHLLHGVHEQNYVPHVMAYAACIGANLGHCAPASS
# human NTPDase8 = target: T3, human NTPDase8 (Homo sapiens, UniProt Q5MY95); conditions: analogue 100 μM as substrate; activity with 100 μM ATP set as 100%
# T3 sequence (Q5MY95 1-495): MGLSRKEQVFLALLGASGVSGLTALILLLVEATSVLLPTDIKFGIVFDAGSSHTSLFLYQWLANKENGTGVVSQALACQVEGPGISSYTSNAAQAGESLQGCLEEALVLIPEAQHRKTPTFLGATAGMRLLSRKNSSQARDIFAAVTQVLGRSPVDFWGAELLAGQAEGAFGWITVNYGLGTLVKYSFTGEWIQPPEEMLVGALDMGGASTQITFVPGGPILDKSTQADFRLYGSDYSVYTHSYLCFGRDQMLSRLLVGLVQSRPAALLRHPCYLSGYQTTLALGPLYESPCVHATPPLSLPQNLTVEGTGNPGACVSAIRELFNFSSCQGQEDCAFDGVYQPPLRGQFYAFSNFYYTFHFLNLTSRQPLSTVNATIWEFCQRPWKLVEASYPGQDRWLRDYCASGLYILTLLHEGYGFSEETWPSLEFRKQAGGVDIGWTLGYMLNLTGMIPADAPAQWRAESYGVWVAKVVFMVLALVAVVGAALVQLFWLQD
# human NPP1 = target: T4, human NPP1 (Homo sapiens, UniProt P22413); test: Inhibition of NPP1, ATP as substrate; type: biochemical; conditions: analogue 100 μM, ATP 100 μM
# T4 sequence (P22413 1-925): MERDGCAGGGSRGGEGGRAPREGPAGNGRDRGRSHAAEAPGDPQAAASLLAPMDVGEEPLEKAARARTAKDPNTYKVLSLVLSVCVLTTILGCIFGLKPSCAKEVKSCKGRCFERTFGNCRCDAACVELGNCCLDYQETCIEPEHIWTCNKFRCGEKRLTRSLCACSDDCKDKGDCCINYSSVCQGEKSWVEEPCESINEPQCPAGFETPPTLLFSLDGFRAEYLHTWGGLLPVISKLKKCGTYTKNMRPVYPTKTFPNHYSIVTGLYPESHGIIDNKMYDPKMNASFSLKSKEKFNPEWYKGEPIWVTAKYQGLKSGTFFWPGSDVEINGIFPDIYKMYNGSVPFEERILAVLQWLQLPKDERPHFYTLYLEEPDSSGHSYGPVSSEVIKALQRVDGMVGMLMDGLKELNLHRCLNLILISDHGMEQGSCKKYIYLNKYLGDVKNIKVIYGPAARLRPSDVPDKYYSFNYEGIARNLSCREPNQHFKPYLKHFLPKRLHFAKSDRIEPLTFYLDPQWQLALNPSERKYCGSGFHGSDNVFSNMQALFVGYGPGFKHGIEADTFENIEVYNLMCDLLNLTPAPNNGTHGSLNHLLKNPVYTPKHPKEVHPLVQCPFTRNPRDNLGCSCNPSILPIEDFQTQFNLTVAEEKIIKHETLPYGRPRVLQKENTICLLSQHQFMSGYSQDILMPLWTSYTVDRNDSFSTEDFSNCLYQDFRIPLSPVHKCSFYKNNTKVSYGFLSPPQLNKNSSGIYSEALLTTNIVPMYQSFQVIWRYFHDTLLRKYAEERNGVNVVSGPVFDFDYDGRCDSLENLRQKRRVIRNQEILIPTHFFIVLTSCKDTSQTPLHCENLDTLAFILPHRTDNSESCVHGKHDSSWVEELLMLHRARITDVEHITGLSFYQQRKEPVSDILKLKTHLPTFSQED
# P2Y11 receptor = target: T5, P2Y11 receptor (Homo sapiens, UniProt Q96G91); test: [Ca2+]i elevation in 1321N1 astrocytoma cells expressing GFP-P2Y11 receptor; type: cell-based; conditions: 1321N1 cells; nr = no response up to 10 μM
# T5 sequence (Q96G91 1-374): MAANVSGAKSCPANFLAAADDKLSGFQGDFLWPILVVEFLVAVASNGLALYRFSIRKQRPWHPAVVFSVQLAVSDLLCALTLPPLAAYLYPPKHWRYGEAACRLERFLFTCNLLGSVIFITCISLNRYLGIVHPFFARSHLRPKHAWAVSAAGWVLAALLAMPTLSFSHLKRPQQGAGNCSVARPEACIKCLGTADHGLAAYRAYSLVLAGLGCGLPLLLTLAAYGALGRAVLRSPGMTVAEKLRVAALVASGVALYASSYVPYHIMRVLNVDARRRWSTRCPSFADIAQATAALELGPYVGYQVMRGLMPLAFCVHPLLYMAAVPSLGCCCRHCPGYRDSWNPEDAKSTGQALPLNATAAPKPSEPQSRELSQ
# P2Y2 receptor, sequence (P41231 whole entry): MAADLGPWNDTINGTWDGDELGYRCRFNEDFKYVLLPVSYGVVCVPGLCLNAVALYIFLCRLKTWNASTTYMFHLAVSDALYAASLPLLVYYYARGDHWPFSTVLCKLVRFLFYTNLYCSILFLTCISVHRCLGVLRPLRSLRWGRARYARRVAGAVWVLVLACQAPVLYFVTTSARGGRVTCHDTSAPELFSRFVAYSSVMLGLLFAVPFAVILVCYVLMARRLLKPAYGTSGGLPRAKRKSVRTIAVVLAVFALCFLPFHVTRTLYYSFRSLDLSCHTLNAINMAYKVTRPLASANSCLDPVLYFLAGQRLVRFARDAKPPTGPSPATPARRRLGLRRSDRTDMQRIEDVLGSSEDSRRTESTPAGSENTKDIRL
smiles,measurement,setting,value
Nc1ncnc2c1ncn2[C@@H]1O[C@H](CO[P@](O)(=S)OP(=O)(O)C(Cl)(Cl)P(=O)(O)O)[C@@H](O)[C@H]1O [2a],"relative activity (%) ± SD of ATP hydrolysis, NTPDase3",human NTPDase3,5.2 ± 0.2%
same,agonist activity at P2Y2R,P2Y2 receptor,no activity
same,inhibition of the typical response to UTP at P2Y2R,P2Y2 receptor,did not inhibit
same,inhibition of TNAP,TNAP,8–17%
same,"relative activity (%) ± SD of ATP hydrolysis, NTPDase8",human NTPDase8,4.3 ± 0.1%
same,inhibition of ATP hydrolysis by NPP1,human NPP1,about 90%
same,"EC50 ± SEM (μM), [Ca^2+]i elevation, P2Y11",P2Y11 receptor,"not agonists; also recorded: inactive; also recorded: not active, nr ^c"
Nc1ncnc2c1ncn2[C@@H]1O[C@H](COP(=O)(O)CP(=O)(O)OP(O)(O)=S)[C@@H](O)[C@H]1O [compound 3],"relative activity (%) ± SD of ATP hydrolysis, NTPDase3",human NTPDase3,4.8 ± 0.2%
same,agonist activity at P2Y2R,P2Y2 receptor,no activity
same,inhibition of the typical response to UTP at P2Y2R,P2Y2 receptor,did not inhibit
same,inhibition of TNAP,TNAP,8–17%
same,"relative activity (%) ± SD of ATP hydrolysis, NTPDase8",human NTPDase8,5.2 ± 0.2%
same,inhibition of ATP hydrolysis by NPP1,human NPP1,about 90%
